Columns and labels:
[1] = tested on: Human osteosarcoma (Saos-2) cells; test: MTT viability assay, Saos-2; type: cell-based; conditions: 10 nm etoposide, 72 hours
Experimental: Human osteosarcoma (Saos-2) cells were purchased from the American Tissue Culture Collection and maintained in McCoy's 5A medium containing 1.5 mM L-glutamine and 2200 mg/L sodium bicarbonate. Media was supplemented with 1% penicillin, streptomycin and 15% foetal bovine serum (FBS).
(§1) Stock solutions of conditioned media were prepared by dissolving glass particles (from Example 1-3) in complete McCoy's 5A medium to treat Saos-2 cells and Clonetics OGM Osteoblast complete growth media to treat osteoblasts.
(§2) Stock solutions were prepared at a concentration of 10 mg/ml and left to incubate in a shaker incubator at 250 rpm at 37° C. for 24 hours. Following the 24 hour incubation period, stock solutions were filtered using 0.2 micron syringe filter. 3 ml samples were excluded to record stock solution pH values following glass dissolution.
(§3) Cell cytotoxicity was analysed using MTT viability assay (Thermo Fisher), where 5000 cells per well of both Saos-2 and NHOst cells were cultured using conditioned media containing 10 mg/ml respective glass compositions (Examples 1-3), for a period of 72 hours. […] Metabolically active cells reduce MTT to formazan and after formazan extraction the optical density was measured using a spectrophotometer (at 570 nm). […]

[2] = tested on: Human osteoblasts (NHOst); test: MTT viability assay, NHOst; type: cell-based; conditions: 10 nm etoposide, 72 hours
Experimental: Human osteoblasts (NHOst) were purchased from Lonza and cultured in Clonetics OGM Osteoblast growth media supplemented with 10% FBS, 1% L-glutamine and 1% penicillin, streptomycin. Both cell lines were maintained at 37° C. in a humidified atmosphere of 5% CO2/95% air.
as §1, §2, §3

## COc1cc([C@@H]2c3cc4c(cc3[C@@H](O[C@@H]3O[C@@H]5CO[C@@H](C)O[C@H]5[C@H](O)[C@H]3O)[C@H]3COC(=O)[C@H]23)OCO4)cc(OC)c1O [etoposide, Etoposide]
[1]
  Saos-2 cell death, positive control: inducer of cell death (p<0.0001)
[2]
  NHOst cell death, positive control: inducer of cell death (p<0.0001)

Reference: US11311646B2, “Therapeutic material” (ASTON UNIVERSITY, priority 2016, dated 2022)
